In publication PMC5349447, “Applying a high-throughput fluorescence polarization assay for the discovery of chemical probes blocking La:RNA interactions in vitro and in cells” (PLoS ONE, 2017):

Assays:
[1] = test system: T1, La:TOPf complex; assay: EMSA, compound competition, La-WT:TOPf; assay type: binding, human; details: TOPf 50 nM
T1 construct: His; made in house; host or cells: E. coli BL21
Description: 12% native TBE polyacrylamide gels were prepared in a Mini-PROTEAN Tetra Handcast System (BioRad). The gel was pre-run for 30 min at 140 V in 1x TBE buffer (45 mM Tris/HCl pH 8.5, 45 mM boric acid, 1 mM EDTA). To prepare the RNA-mix, fluorescence labeled RNA oligoribonucleotides (oligos) were diluted in fluorescence polarization buffer (20 mM Tris/HCl (pH 7.4), 150 mM NaCl, 3.0 mM MgCl2, 0.5 mM EDTA, 0.05% (v/v) IGEPAL), mixed for 10 min at 80°C, and then immediately placed on ice for at least 5 min. All RNA oligos were used at a final concentration of 50 nM. Recombinant La protein was diluted in D-buffer (20 mM Tris/ HCl (pH 7.4), 150mM NaCl, 3mM MgCl2, 0.5mM EDTA, 5% glycerol) and placed on ice until use.
La titration was performed at final concentrations of 20, 40, 60, 100, 200, 300, 400, 500, 600 nM La. Three different La concentrations were used for compound studies: 60 nM for fD1 RNA, 200 nM for fPolyU RNA, and 150 nM for TOPf RNA studies. Two μl of diluted compound (diluted in 100% DMSO) or 2 μl 100% DMSO (control reaction) was combined with 8 μl La-mix in a 96-well plate. 10 μl RNA-mix was added, mixed for 2 min, and incubated for 10 min at RT in the dark. […] The La-RNA complex (La-RNP) formation was quantified using the ImageQuant TL software. […]

[2] = test system: T2, gfp-tagged La-WT association with cellular mRNAs; assay: RNA immunoprecipitation (RIP) with RT-qPCR in HEK293 expressing gfp-tagged La; assay type: cell-based, human; details: 150 μM, HEK293 gfpLa
T2 construct: full length La (La wildtype, La-WT); expressed in transfected cells
Description: RIP experiments were performed with HEK293 stably expressing gfp (green fluorescent protein)-tagged La wiltype (La-WT) protein as described recently. The compound C2:01 was dissolved in 100% DMSO to a concentration of 100 mM. Subsequently, the compound was diluted in media to 10 mM (10% DMSO) and 1 mM (1% DMSO). The 1 mM stock was diluted 6.7-fold in culture media to reach a final concentration of 150 μM (0.15% DMSO). Cells were washed with ice-cold 1x PBS, and lysed by incubating with lysis buffer (20 mM Tris-HCl, (pH 7.4), 150 mM NaCl, 1% IGEPAL CA-630, 10% glycerol, 1 mM EDTA, 50mM NaF, and 1 mM DTT, supplemented with RNase inhibitors and protease inhibitors) on tube rotator for 15 min at 4°C. The cell lysate was sonicated (3 sec for 10 times at power 3, Sonic Dismembrator Model 100) and cleared by centrifugation at 14,000 g at 4°C for 20 min. The cleared lysate was incubated with anti-gfp magnetic beads (MBL International) on the orbital rotor at 4°C overnight. The beads were washed four times with wash buffer I (50 mM Tris-HCl (pH 7.4), 300 mM NaCl, 0.05% IGEPAL CA-630, 20 mM EDTA, 1 mM DTT, and 1 mM MgCl2) and three times with wash buffer II (50 mM Tris-HCl (pH 7.4), 300 mM NaCl, 0.05% IGEPAL CA-630, 20 mM EDTA, 1 mM DTT, 1 mM MgCl2 and 1 M urea)[29].
For preparation of the RNA, the beads were resuspended in wash buffer II and RNA was extracted by applying the Phenol-Chloroform-Isoamyl alcohol method. […] The RNA pellet was dissolved in RNase-DNase-free H2O and quantitated by NanoDrop spectrophotometer and subjected to RT-qPCR analysis. By RT-qPCR the La-specific RIP-RNA pellets (gfp-tagged La) were tested for the presence of Bcl2, CCND1, L37, L22 and S6 mRNA and none of those were detected in the control RIP experiments (gfp alone). The enrichment was calculated by establishing standard curves for specific mRNAs using the RT^2 qPCR Primer Assays (Qiagen): Bcl2 (PPH00079B), CCND1 (PPH00128F), L37 (QT00014105), L22 (QT00079982), S6 (QT02505328) as described recently. […]

[3] = test system: SCC 22B cells; assay: Cisplatin sensitization, CyQUANT, SCC 22B; assay type: cell-based, human; details: 50 μM C2.01 pretreatment
Description: To test whether compound C2.01 sensitizes cells for cisplatin, cells were treated with 0.2% DMSO alone, cisplatin at 4, 8, 16, 32 or 64 μM concentration alone or in combination with 50 μM compound C2.01. The half maximal inhibitory concentration (IC50) of cisplatin was determined by treating SCC 22B cells with increasing cisplatin (Selleckchem) concentrations or vehicle (DMSO) for 48 h (96-well format) as described recently. For this experiments 1x10^4 SCC 22B cells were plated the day before the experiment. DMSO or C2.01 was added to a final concentration of DMSO (0.05%) and C2.01 (50 μM). Six hours later the different cisplatin concentrations were added. The highest DMSO concentration of 0.25% was used in the control for cisplatin and C2.01 double treatment. Subsequently, cells were washed twice with 1x PBS and quantified after staining with fluorescence dye (CyQUANT®, Life Technologies) 48 after the initial C2.01 treatment.

O=C(O)c1ccccc1C(=O)c1ccc(O)cc1O [C2, 2-(2,4-dihydroxybenzoyl)benzoic acid]
impairment of La:TOPf complex formation (EMSA), in words ([1]; La-WT 200 nM): only at the highest concentration tested

Cc1ccc(C(=O)c2ccccc2C(=O)O)c(O)c1 [C2.01, 2-(2-hydroxy-4-methylbenzoyl)benzoic acid]
binding of La to Bcl2 mRNA in cells (RIP) [2]: selectively impaired
binding of La to CCND1 mRNA in cells (RIP) [2]: selectively impaired
binding of La to TOP mRNAs encoding RPL37, RPL5 and RPSK6 in cells (RIP) [2]: no effect
sensitization of SCC 22B cells for cisplatin treatment [3]: sensitizes

CCOC(=O)c1ccc2c(c1)C1C=CCC1C(C(=O)O)N2 (stereo not drawn) [C6, 8-(ethoxycarbonyl)-3a,4,5,9b-tetrahydro-3Hcyclopenta[c]quinoline-4-carboxylic acid]
concentration blocking La-WT:TOPf complex formation (EMSA) ([1]; La-WT 150 nM): 10 µM
